Experimental data taken from US10335409B2 (priority 2012, dated 2019).

Tests used:
[1] = molecular target: HCV NS3 protease domain genotype 1b (Hepatitis C virus genotype 1b (isolate Con1), UniProt Q9WMX2, E1202G); assay: Ki determination, NS3 protease genotype 1b (fluorogenic depsipeptide substrate); format: biochemical; conditions: 50 pM enzyme, NS4A peptide
[2] = molecular target: HCV NS3 protease domain genotype 3a (Hepatitis C virus genotype 3a, UniProt Q81258); assay: Ki determination, NS3 protease genotype 3a (fluorogenic depsipeptide substrate); format: biochemical; conditions: 200 pM enzyme, NS4A peptide
Summary of the method: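 The NS3 protease domain (aa 1-181) with 20 μM NS4A peptide was used at 50 pM with 4 μM substrate (1b) or at 200 pM with 2 μM substrate (3a). Inhibitors (100 nM-5 pM) were pre-incubated 1 h at room temperature in HEPES/glycerol/DTT buffer with 10% DMSO. Steady-state rates (90-120 min) gave Ki via the Morrison equation, corrected for active enzyme and [S]/Km.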

[3] = tested on: genotype 1a (H77) stable HCV replicon in Huh-7-derived cells; assay: Stable subgenomic HCV replicon EC50, genotype 1a (Renilla luciferase); format: cell-based, hepatitis C virus; conditions: Hepatitis C virus, stable replicon genotype 1a, 72 h, read-out: EC50 1A RLUC
Summary of the method: (§1)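 Compounds, three-fold diluted, were applied to Huh-7-derived cells harbouring luciferase replicons (genotype 1a H77, 1b Con1, 2a JFH-1, 4a ED43, with strain-specific adaptive mutations). Seventy-two hours later, intracellular replication was gauged by Renilla luciferase activity and EC50 derived by regression.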

[4] = tested on: genotype 1b (Con1) stable HCV replicon in Huh-7-derived cells; assay: Stable subgenomic HCV replicon EC50, genotype 1b (Renilla luciferase); format: cell-based, hepatitis C virus; conditions: Hepatitis C virus, stable replicon genotype 1b, 72 h, read-out: EC50 1B RLUC
Summary of the method: as §1

[5] = tested on: genotype 2a (JFH-1) stable HCV replicon in Huh-7-derived cells; assay: Stable subgenomic HCV replicon EC50, genotype 2a (Renilla luciferase); format: cell-based, hepatitis C virus; conditions: Hepatitis C virus, stable replicon genotype 2a, 72 h, read-out: EC50 2A RLUC
Summary of the method: as §1

[6] = tested on: genotype 3a (S52) stable HCV replicon in Huh-7-derived cells; assay: Stable subgenomic HCV replicon EC50, genotype 3a (Renilla luciferase); format: cell-based, hepatitis C virus; conditions: Hepatitis C virus, 72 h, read-out: EC50 3A RLUC
[7] = tested on: genotype 4a (ED43) stable HCV replicon in Huh-7-derived cells; assay: Stable subgenomic HCV replicon EC50, genotype 4a (Renilla luciferase); format: cell-based, hepatitis C virus; conditions: Hepatitis C virus, 72 h, read-out: EC50 4A RLUC
Summary of the method: as §1

[8] = tested on: genotype 3a (S52) wild type transient HCV replicon in Huh-7-derived cells; assay: Transient-transfected HCV replicon EC50, genotype 3a wild type; format: cell-based, hepatitis C virus; conditions: Hepatitis C virus; transient-transfected replicon genotype 3a wild type, 72 h; read-out: EC50 3A WT
[9] = tested on: genotype 1a (H77) wild type transient HCV replicon in Huh-7-derived cells; assay: Transient-transfected HCV replicon EC50, genotype 1a wild type; format: cell-based, hepatitis C virus; conditions: Hepatitis C virus, 72 h, transient-transfected replicon genotype 1a wild type, read-out: EC50 1A WT
[10] = tested on: genotype 1a NS3/4a protease inhibitor resistant variant R155K transient HCV replicon in Huh-7-derived cells; assay: Transient-transfected HCV replicon EC50, genotype 1a R155K; format: cell-based, hepatitis C virus; conditions: Hepatitis C virus, 72 h, read-out: EC50 1A R155K, transient-transfected replicon genotype 1a R155K resistant variant, 72 h
[11] = tested on: genotype 1b (Con1) wild type transient HCV replicon in Huh-7-derived cells; assay: Transient-transfected HCV replicon EC50, genotype 1b wild type; format: cell-based, hepatitis C virus; conditions: Hepatitis C virus, 72 h, transient-transfected replicon genotype 1b wild type, read-out: EC50 1B WT
[12] = tested on: genotype 1b NS3/4a protease inhibitor resistant variant D168A transient HCV replicon in Huh-7-derived cells; assay: Transient-transfected HCV replicon EC50, genotype 1b D168A; format: cell-based, hepatitis C virus; conditions: Hepatitis C virus, 72 h, read-out: EC50 1B D168A, transient-transfected replicon genotype 1b D168A resistant variant, 72 h

Sequence of HCV NS3 protease domain genotype 3a (Q81258 whole entry, looked up, the tested form may be a part): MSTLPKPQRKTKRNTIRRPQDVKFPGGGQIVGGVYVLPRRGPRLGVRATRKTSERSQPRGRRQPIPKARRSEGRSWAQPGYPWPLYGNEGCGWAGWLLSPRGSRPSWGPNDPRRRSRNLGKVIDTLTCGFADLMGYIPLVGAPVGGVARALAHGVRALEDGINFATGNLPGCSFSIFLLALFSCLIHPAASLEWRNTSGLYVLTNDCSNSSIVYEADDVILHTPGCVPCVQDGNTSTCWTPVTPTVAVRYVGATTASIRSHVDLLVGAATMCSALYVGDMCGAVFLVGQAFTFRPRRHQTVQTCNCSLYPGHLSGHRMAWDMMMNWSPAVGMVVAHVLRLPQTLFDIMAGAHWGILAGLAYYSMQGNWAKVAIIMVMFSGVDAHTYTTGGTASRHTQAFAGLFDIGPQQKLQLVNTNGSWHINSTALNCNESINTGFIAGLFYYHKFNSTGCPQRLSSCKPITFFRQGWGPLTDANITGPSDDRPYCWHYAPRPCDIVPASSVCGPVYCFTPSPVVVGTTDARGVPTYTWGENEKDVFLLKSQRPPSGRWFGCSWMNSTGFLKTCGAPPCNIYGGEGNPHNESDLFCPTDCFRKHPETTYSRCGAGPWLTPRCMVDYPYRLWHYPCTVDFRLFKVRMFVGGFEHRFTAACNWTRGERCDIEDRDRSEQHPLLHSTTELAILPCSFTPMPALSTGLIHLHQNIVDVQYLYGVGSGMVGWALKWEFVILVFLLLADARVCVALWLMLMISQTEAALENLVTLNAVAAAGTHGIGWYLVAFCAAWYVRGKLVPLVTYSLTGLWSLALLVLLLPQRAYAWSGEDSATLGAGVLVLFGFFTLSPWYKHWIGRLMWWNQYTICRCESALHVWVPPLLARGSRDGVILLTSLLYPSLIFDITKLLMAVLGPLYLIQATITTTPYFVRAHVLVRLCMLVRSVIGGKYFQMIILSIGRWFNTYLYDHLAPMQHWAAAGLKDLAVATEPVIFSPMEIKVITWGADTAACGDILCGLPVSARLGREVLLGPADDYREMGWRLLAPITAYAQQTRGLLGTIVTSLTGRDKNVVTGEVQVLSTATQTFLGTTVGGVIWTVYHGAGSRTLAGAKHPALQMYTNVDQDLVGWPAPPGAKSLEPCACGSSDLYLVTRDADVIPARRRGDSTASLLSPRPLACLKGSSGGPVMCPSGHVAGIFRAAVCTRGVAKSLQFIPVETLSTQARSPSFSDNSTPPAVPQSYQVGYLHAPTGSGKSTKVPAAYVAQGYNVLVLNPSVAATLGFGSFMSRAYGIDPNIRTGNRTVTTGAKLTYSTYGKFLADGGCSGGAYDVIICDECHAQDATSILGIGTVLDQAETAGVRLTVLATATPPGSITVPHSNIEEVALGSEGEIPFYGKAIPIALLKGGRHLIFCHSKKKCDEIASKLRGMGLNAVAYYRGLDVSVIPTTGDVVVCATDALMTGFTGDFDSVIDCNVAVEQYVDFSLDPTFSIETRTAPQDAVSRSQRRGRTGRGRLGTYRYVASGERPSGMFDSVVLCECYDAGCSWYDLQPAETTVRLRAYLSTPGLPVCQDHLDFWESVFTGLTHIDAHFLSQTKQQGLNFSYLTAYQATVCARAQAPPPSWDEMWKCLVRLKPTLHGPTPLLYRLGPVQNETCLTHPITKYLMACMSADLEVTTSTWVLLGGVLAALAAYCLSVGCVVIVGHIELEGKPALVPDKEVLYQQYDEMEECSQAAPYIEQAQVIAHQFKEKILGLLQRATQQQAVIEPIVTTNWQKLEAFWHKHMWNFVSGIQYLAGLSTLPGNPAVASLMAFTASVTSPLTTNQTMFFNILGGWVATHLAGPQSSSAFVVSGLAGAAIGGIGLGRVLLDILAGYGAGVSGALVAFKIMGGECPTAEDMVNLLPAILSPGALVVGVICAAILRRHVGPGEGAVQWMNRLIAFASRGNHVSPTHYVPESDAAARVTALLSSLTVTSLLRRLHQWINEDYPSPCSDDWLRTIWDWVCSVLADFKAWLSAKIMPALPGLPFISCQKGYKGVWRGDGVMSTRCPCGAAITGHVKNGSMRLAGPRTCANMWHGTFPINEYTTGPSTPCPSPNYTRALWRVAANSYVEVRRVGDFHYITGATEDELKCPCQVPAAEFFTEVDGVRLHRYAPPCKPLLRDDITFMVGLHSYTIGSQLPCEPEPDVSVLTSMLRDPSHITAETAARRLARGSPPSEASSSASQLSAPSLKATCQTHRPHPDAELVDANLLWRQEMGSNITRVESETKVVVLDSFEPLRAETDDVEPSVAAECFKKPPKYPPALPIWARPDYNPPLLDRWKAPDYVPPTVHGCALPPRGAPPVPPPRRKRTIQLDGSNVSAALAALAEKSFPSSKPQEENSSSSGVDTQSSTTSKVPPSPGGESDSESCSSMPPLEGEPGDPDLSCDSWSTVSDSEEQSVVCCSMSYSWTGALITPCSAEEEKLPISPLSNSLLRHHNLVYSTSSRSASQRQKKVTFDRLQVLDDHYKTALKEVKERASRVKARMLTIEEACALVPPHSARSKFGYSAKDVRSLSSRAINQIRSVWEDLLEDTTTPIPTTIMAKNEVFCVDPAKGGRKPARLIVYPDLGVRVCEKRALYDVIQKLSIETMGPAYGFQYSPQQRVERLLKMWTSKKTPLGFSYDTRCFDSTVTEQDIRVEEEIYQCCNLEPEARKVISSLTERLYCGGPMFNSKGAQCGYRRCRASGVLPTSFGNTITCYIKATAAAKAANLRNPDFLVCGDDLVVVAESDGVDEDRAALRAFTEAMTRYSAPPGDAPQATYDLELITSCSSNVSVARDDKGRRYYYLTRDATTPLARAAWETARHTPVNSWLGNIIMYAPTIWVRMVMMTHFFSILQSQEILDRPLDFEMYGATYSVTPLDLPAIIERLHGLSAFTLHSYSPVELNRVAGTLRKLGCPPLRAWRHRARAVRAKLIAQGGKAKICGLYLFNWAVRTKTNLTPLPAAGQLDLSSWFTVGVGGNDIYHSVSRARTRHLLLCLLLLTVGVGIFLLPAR
Sequence of HCV NS3 protease domain genotype 1b (Q9WMX2 1027-1208 E1202G): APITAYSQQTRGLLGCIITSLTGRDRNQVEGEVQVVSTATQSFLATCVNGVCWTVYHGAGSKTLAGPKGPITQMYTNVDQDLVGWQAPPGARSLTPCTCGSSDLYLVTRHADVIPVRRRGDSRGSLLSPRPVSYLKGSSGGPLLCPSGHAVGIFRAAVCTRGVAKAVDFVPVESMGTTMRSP

Row | SMILES | Ki [1] | Ki [2] | EC50 [3] | EC50 [4] | EC50 [5] | EC50 [6] | EC50 [7] | EC50 [8] | EC50 [9] | EC50 [10] | EC50 [11] | EC50 [12]
1 | C[C@@H]1[C@@H]2CN(C(=O)[C@H](C(C)(C)C)NC(=O)O[C@@H]3C[C@@H]4C[C@@H]4[C@H]3CCCCCc3nc4ccc(F)cc4nc3O2)[C@@H]1C(=O)N[C@]1(C(=O)NS(=O)(=O)C2(C)CC2)C[C@H]1C(F)F [Example 86, (1aS,2aR,6S,9S,10S,11R,23aR,23bS)-6-tert-butyl-N-[(1R,2R)-2-(difluoromethyl)-1-{[(1-methylcyclopropyl)sulfonyl]carbamoyl}cyclopropyl]-15-fluoro-10-methyl-4,7-dioxo-1a,2,2a,4,5,6,7,10,11,19,20,21,22,23,23a,23b-hexadecahydro-1H,9H-8,11-methanocyclopropa[4′,5′]cyclopenta[1′,2′:18,19][1,10,3,6]dioxadiazacyclononadecino[11,12-b]quinoxaline-9-carboxamide] | 0.04 nM | 0.07 nM | 5.6 nM | 5.5 nM | 5.9 nM | 42 nM | 5.7 nM | 16 nM | 4 nM | 3.7 nM | 3.4 nM | 10 nM
2 | CC[C@@H]1[C@@H]2CN(C(=O)[C@H](C(C)(C)C)NC(=O)O[C@@H]3C[C@@H]4C[C@@H]4[C@H]3CCCCC(F)(F)c3nc4ccc(OC)cc4nc3O2)[C@@H]1C(=O)N[C@]1(C(=O)NS(=O)(=O)C2CC2)C[C@H]1C(F)F [Example 59, (1aS,2aR,6S,9S,10 S,11R,23aR,23bS)-6-tert-butyl-N-[(1R,2R)-1-[(cyclopropylsulfonyl)carbamoyl]-2-(difluoromethyl)cyclopropyl]-10-ethyl-19,19-difluoro-15-methoxy-4,7-dioxo-1a,2,2a,4,5,6,7,10,11,19,20,21,22,23,23a,23b-hexadecahydro-1H,9H-8,11-methanocyclopropa[4′,5′]cyclopenta[1′,2′:18,19][1,10,3,6]dioxadiazacyclononadecino[11,12-b]quinoxaline-9-carboxamide] | 0.04 nM | 0.06 nM | 5.4 nM | 11 nM | 13 nM | 20 nM | 5.6 nM | 15 nM | 10 nM | 6.8 nM | 6.8 nM | 6.4 nM
3 | CC[C@@H]1[C@@H]2CN(C(=O)[C@H](C(C)(C)C)NC(=O)O[C@@H]3C[C@H]3CCCCCc3nc4ccc(OCC(F)(F)F)cc4nc3O2)[C@@H]1C(=O)N[C@]1(C(=O)NS(=O)(=O)C2(C)CC2)C[C@H]1C(F)F [Example 55, (1aR,5S,8S,9S,10R,22aR)-5-tert-butyl-N-[(1R,2R)-2-(difluoromethyl)-1-{[(1-methylcyclopropyl)sulfonyl]carbamoyl}cyclopropyl]-9-ethyl-3,6-dioxo-14-(2,2,2-trifluoroethoxy)-1,1a,3,4,5,6,9,10,18,19,20,21,22,22a-tetradecahydro-8H-7,10-methanocyclopropa[18,19][1,10,3,6]dioxadiazacyclononadecino[11,12-b]quinoxaline-8-carboxamide] | 0.09 nM | 0.2 nM | 13 nM | 3.8 nM | 12 nM | 140 nM | 3.5 nM | 71 nM | 8 nM | 32 nM | 2.3 nM | 53 nM
